Assays:
SF539 (Glioblastoma) [1] = test: Bliss excess, mean over the matrix (fraction); higher = more synergy
Summary of the method: (§1)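 After 24 hours at 37°C and 5% CO2 in 1536-well plates, cells in DMEM/F12 or RPMI plus 10% FBS received two-drug dose matrices for 72 hours. Viability came from CellTiter-Glo 2.0 luminescence and was scaled as inhibition, anchored at 0 by vehicle wells and at 1 by blank wells. Combination Emax is taken as the second-highest inhibition in the matrix, and Bliss excess as the observed combination effect less EA + EB − EA·EB, with EA and EB the single-agent effects.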

[2] = tested on: PSN1 (Pancreatic Carcinoma); test: as above
Summary of the method: as §1

IST-MES1 (Mesothelioma) [3] = test: as above
Summary of the method: as §1

[4] = tested on: REH (B-Lymphoblastic Leukemia); test: as above
Summary of the method: as §1

[5] = tested on: OVMIU (Ovarian Carcinoma); test: combination Emax (second highest fraction inhibited in the dose matrix, 72 h); higher = more inhibition; extreme values may be limits of the assay
Summary of the method: as §1

[6] = tested on: SK-PN-DW (Other Solid Carcinomas); test: as above
Summary of the method: as §1

[7] = tested on: PANC-03-27 (Pancreatic Carcinoma); test: as above
Summary of the method: as §1

[8] = tested on: TE-8 (Esophageal Squamous Cell Carcinoma); test: as above
Summary of the method: as §1

[9] = tested on: LK-2 (Squamous Cell Lung Carcinoma); test: as above
Summary of the method: as §1

[10] = tested on: COLO-680N (Esophageal Squamous Cell Carcinoma); test: as above
Summary of the method: as §1

[11] = tested on: MKN45 (Gastric Carcinoma); test: as above
Summary of the method: as §1

[12] = tested on: MFE-280 (Endometrial Carcinoma); test: as above
Summary of the method: as §1

[13] = tested on: L-1236 (Hodgkin's Lymphoma); test: as above
Summary of the method: as §1

[14] = tested on: CAL-62 (Thyroid Gland Carcinoma); test: as above
Summary of the method: as §1

[15] = tested on: RCM-1 (Colorectal Carcinoma); test: as above
Summary of the method: as §1

[16] = tested on: SHP-77 (Small Cell Lung Carcinoma); test: as above
Summary of the method: as §1

SF539 (Glioblastoma) [17] = test: as above
Summary of the method: as §1

[18] = tested on: PSN1 (Pancreatic Carcinoma); test: as above
Summary of the method: as §1

IST-MES1 (Mesothelioma) [19] = test: as above
Summary of the method: as §1

[20] = tested on: RKN (Other Solid Carcinomas); test: as above
Summary of the method: as §1
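For Bliss excess, mean over the matrix in this document: after 72 h of two-drug dosing.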

Structure (SMILES)	Bliss excess (SF539 (Glioblastoma) [1])	Bliss excess [2]	Bliss excess (IST-MES1 (Mesothelioma) [3])	Bliss excess [4]	combination Emax [5]	combination Emax [6]	combination Emax [7]	combination Emax [8]	combination Emax [9]	combination Emax [10]	combination Emax [11]	combination Emax [12]	combination Emax [13]	combination Emax [14]	combination Emax [15]	combination Emax [16]	combination Emax (SF539 (Glioblastoma) [17])	combination Emax [18]	combination Emax (IST-MES1 (Mesothelioma) [19])	combination Emax [20]
O=C(c1cc(Cc2n[nH]c(=O)c3ccccc23)ccc1F)N1CCN(C(=O)C2CC2)CC1 [Olaparib] + Cc1c2c(nn1C)CSCc1cc(n(C)n1)CSc1cc(c3ccccc3c1)OCCCc1c(C(=O)O)n(C)c3c-2c(Cl)ccc13 [AZD5991] (first compound max 10 µM, 7x7, partner max 1 µM)	-0.0003	-0.0506	-0.0434	0.0318	0.104	0.781	0.128	0.184	0.301	0.0855	0.185	0.181	0.53	0.0932	0.0639	0.288	0.46	0.214	0.242	0.161
N#Cc1cnc(Nc2cc(NC[C@H]3CNCCO3)c(C(F)(F)F)cn2)cn1 [SRA737] + C=CCn1c(=O)c2cnc(Nc3ccc(N4CCN(C)CC4)cc3)nc2n1-c1cccc(C(C)(C)O)n1 [AZD1775] (first compound max 10 µM, partner max 1 µM)	0.0293	0.0375	0.0282	0.162	0.669	0.913	0.858	0.777	0.953	0.35	0.742	0.566	0.952	0.727	0.631	0.722	0.986	0.642	0.442	0.608
N#Cc1cnc(Nc2cc(NC[C@H]3CNCCO3)c(C(F)(F)F)cn2)cn1 [SRA737] + CCc1c2c(nc3ccc(O)cc13)-c1cc3c(c(=O)n1C2)COC(=O)[C@]3(O)CC [SN-38] (first compound max 10 µM, 7x7, partner max 0.3 µM)	-0.0174	-0.0149	-0.0108	-0.0324	0.404	0.927	0.844	0.838	0.906	0.552	0.868	0.88	0.944	0.865	0.768	0.912	0.971	0.908	0.759	0.858
N#Cc1cnc(Nc2cc(NC[C@H]3CNCCO3)c(C(F)(F)F)cn2)cn1 [SRA737] + Nc1ccn([C@@H]2O[C@H](CO)[C@@H](O)C2(F)F)c(=O)n1 [Gemcitabine] (first compound max 10 µM, 7x7, partner max 0.3 µM)	0.0222	0.0721	0.0486	0.0113	0.456	0.933	0.729	0.749	0.918	0.47	0.761	0.815	0.948	0.799	0.688	0.907	0.947	0.853	0.857	0.812
N#Cc1cnc(Nc2cc(NC[C@H]3CNCCO3)c(C(F)(F)F)cn2)cn1 [SRA737] + O=c1[nH]cc(F)c(=O)[nH]1 [5-Fluorouracil] (first compound max 10 µM, 7x7, partner max 20 µM)	0.0471	0.0184	-0.0169	0.0356	0.413	0.956	0.725	0.413	0.686	0.387	0.697	0.252	0.94	0.371	0.578	0.786	0.915	0.748	0.288	0.344
Cc1nc(-c2cn3c(n2)-c2ccc(-c4cnn(C(C)(C)C(N)=O)c4)cc2OCC3)n(C(C)C)n1 [Taselisib] + O=C(Nc1ccc2[nH]nc(-c3ccncc3)c2c1)[C@@H]1CCN(CC(=O)N2CCN(c3ccc(-c4ncccn4)cc3)CC2)C1 [SCH772984] (first compound max 10 µM, 7x7, partner max 5 µM)	0.0465	0.0797	-0.0307	0.102	0.904	0.609	0.885	0.758	0.613	0.5	0.798	0.839	0.722	0.637	0.803	0.387	0.934	0.946	0.516	0.57
CC1(C)CCC(CN2CCN(c3ccc(C(=O)NS(=O)(=O)c4ccc(NCC5CCOCC5)c([N+](=O)[O-])c4)c(Oc4cnc5[nH]ccc5c4)c3)CC2)=C(c2ccc(Cl)cc2)C1 [Venetoclax] + CS(=O)(=O)CCNCc1ccc(-c2ccc3ncnc(Nc4ccc(OCc5cccc(F)c5)c(Cl)c4)c3c2)o1 [Lapatinib] (first compound max 1 µM, 7x7, partner max 10 µM)	-0.0166	-0.0211	-0.0357	0.0755	0.607	0.455	0.5	0.263	0.31	0.231	0.242	0.255	0.655	0.114	0.42	0.344	0.309	0.177	0.313	0.171

Reference: the supplement of paper PMC11061612
